The IC50 is the concentration that gives 50% inhibition. A lower IC50 goes with higher potency.

This experiment has as its target human FAAH (Fatty Acid Amide Hydrolase) (Homo sapiens (Human), UniProt O00519). In words: FAAH inhibition, human FAAH CHO whole cell format. The format is cell-based. The text has this: To assist in assay development stable cell lines for human, murine and rat full length FAAH were developed. […] The full length FAAH was subcloned into the mammalian expression vector, pcDEF.neo, using XbaI and EcoRI restriction sites and used for stable cell line generation.
The full length murine FAAH was subcloned into the mammalian expression vector, pcDEFneo using either EcoRI (murine) or KpnI and EcoRI (rat) restriction sites. Chinese hamster ovary cells (CHO) were transfected following manufacturers protocol (AMAXA). Forty eight hours post transfection, cells were trypsinized and transferred to 96 well plates in Iscove's DMEM media supplemented with 2 mM Glutamine, 10% fetal calf serum, 1 mg/ml geneticin and HT Supplement (0.1 mM sodium hypoxanthine, 0.016 mM thymidine) in order to isolate single clones. […] Following removal of tissue culture media cells were dislodged following addition of Cellstripper (Mediatech, Inc. Manassas, Va.) and transferred to 96 well black clear bottom assay plate, centrifuged at 1,000 rpm for 3 mins and media removed and replaced with assay buffer (50 mM Tris pH8.0, 1 mM EDTA, 0.1% fatty acid free BSA). The reaction was initiated by addition of fluorescent substrate, AMC Arachidonoyl Amide (Cayman Chemical, Ann Arbor, Mich.) to 1 μM and reaction allowed to proceed for 2 hours at room temperature. Release of fluorescence was monitored in a CytoFluor Multiplate Reader.
Assays are performed on either cell lysate or microsome fractions prepared as described or in whole cell format employing either the fluorescent substrate AAMCA (Cayman chemical, Ann Arbor, Mich.,) or ^3H-anandamide ([ETHANOLAMINE-1-3H] American Radiolabeled Chemicals; 1 mCi/ml). […] AAMCA substrate was used to achieve a final concentration of 1 μM and reaction allowed to proceed at room temperature for 1-3 hours. […] Whole cell assay is conducted with cells harvested after rinsing tissue culture flasks three times with Ca^++Mg^++ free PBS, incubating for 10 min in Enzyme free dissociation media and centrifuging for 5 minutes at 1,000 rpm in table top centrifuge. Cells are resuspended in assay buffer at desired cell number in (4×10^4 cells/assay in 96-well format; 1×10^4 cells/assay in 384-well format) and assayed as described.

Chain of human FAAH (Fatty Acid Amide Hydrolase) (O00519 whole entry): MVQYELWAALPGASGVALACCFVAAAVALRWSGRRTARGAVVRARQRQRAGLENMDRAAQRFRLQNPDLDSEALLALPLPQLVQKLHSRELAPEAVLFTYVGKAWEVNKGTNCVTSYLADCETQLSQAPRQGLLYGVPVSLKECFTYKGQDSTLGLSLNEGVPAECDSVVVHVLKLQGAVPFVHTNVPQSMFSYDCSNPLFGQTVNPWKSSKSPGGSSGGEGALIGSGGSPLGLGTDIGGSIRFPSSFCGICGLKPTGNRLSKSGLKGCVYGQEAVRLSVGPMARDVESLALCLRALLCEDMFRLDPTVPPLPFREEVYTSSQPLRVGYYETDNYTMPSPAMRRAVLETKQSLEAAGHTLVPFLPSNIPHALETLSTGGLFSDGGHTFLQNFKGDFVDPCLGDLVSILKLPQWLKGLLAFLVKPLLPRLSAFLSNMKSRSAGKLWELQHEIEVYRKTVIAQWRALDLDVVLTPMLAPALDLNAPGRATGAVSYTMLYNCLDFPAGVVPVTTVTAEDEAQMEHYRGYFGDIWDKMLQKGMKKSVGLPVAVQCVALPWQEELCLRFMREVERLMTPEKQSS

`CC(C)(O)c1ccc(-c2nc(C3CCOCC3)oc2Sc2ccc(OC(F)F)cn2)cn1` [Example A7.7, 2-{5-[5-{[5-(difluoromethoxy)pyridin-2-yl]sulfanyl}-2-(tetrahydro-2H-pyran-4-yl)-1,3-oxazol-4-yl]pyridin-2-yl}propan-2-ol] gave a half-maximal inhibitory concentration (IC50) of 2210 nM.
Under `CC(C)COC(=O)N1CCC(c2nc(C3CCOCC3)oc2Sc2ccc(Cl)cn2)CC1` [Example A7.36, 2-methylpropyl 4-{5-[(5-chloropyridin-2-yl)sulfanyl]-2-(tetrahydro-2H-pyran-4-yl)-1,3-oxazol-4-yl}piperidine-1-carboxylate] stands at least 10000 nM; under `COc1ccc(Sc2oc(C3CCOCC3)nc2-c2ccc(C(C)(C)O)nc2)cn1` [Example A7.8, 2-(5-{5-{(6-methoxypyridin-3-yl)sulfanyl]-2-(tetrahydro-2H-pyran-4-yl)-1,3-oxazol-4-yl}pyridin-2-yl)propan-2-ol], 1190 nM.
Next, `CCOC(=O)N1CCC(c2nc(C3CCOCC3)oc2Sc2ccc(Cl)cn2)CC1` [Example A7.34, ethyl 4-{5-[(5-chloropyridin-2-yl)sulfanyl}-2-(tetrahydro-2H-pyran-4-yl)-1,3-oxazol-4-yl}piperidine-1-carboxylate]: 150 nM.
In the case of `CC(C)(O)c1ccc(-c2nc(C3CCOCC3)oc2Sc2ccc(C3CC3)cn2)cn1` [Example A7.6, 2-(5-{5-{(5-cyclopropylpyridin-2-yl)sulfanyl]-2-(tetrahydro-2H-pyran-4-yl)-1,3-oxazol-4-yl}pyridin-2-yl)propan-2-ol], the concentration for half-maximal inhibition (IC50) is 4140 nM.
Under `CCNC(=O)N1CCC(c2nc(C3CCOCC3)oc2Sc2ccc(Cl)cn2)CC1` [Example A7.40, 4-{5-[(5-chloropyridin-2-yl)sulfanyl]-2-(tetrahydro-2H-pyran-4-yl)-1,3-oxazol-4-yl}-N-ethylpiperidine-1-carboxamide] stands 9700 nM; under `CC(C)(O)c1ccc(-c2nc([C@H]3CC[C@H](C(C)(C)O)CC3)oc2Sc2ccc(Cl)cc2)cn1` [Example B5.38, 2-(5-{5-[(4-chlorophenyl)sulfanyl]-2-[trans-4-(2-hydroxypropan-2-yl)cyclohexyl]-1,3-oxazol-4-yl}pyridin-2-yl)propan-2-ol], 185 nM.
Under `CC(C)(O)c1ccc(-c2nc(C3CCOCC3)oc2Cc2ccc(Cl)cc2)cn1` [Example A7.11, 2-{5-[5-(4-chlorobenzyl)-2-(tetrahydro-2H-pyran-4-yl)-1,3-oxazol-4-yl]pyridin-2-yl}propan-2-ol] stands 701 nM; under `Clc1ccc(Sc2oc(C3CCOCC3)nc2-c2ccc(N3CCNCC3)cc2)cc1` [Example B5.21, 1-(4-{5-[(4-chlorophenyl)sulfanyl]-2-(tetrahydro-2H-pyran-4-yl)-1,3-oxazol-4-yl}phenyl)piperazine], 707 nM; under `O=C(c1ccc(-c2nc(C3CCOCC3)oc2Sc2ccc(Cl)cc2)cc1)N1CCOC1` [Example B5.20, (4-{5-[(4-chlorophenyl)sulfanyl]-2-(tetrahydro-2H-pyran-4-yl)-1,3-oxazol-4-yl}phenyl)(1,3-oxazolidin-3-yl)methanone], 383 nM.
Under `CC(C)(O)c1ccc(-c2nc([C@H]3CC[C@@H](CO)CC3)oc2Sc2ccc(Cl)cc2)cn1` [Example B5.36, 2-(5-{5-[(4-chlorophenyl)sulfanyl]-2-[cis-4-(hydroxymethyl)cyclohexyl]-1,3-oxazol-4-yl}pyridin-2-yl)propan-2-ol] stands 63.8 nM; under `CC(C)(O)c1ccc(-c2nc(C3CCOCC3)oc2Oc2ccc(Cl)cc2)cn1` [Example A7.12, 2-{5-[5-(4-chlorophenoxy)-2-(tetrahydro-2H-pyran-4-yl)-1,3-oxazol-4-yl]pyridin-2-yl}propan2-ol], 290 nM; under `COC(=O)N1CCC(c2nc(C3CCOCC3)oc2Sc2ccc(Cl)cn2)CC1` [Example A7.32, methyl 4-{5-[(5-chloropyridin-2-yl)sulfanyl]-2-(tetrahydro-2H-pyran-4-yl)-1,3-oxazol-4-yl}piperidine-1-carboxylate], 142 nM.

These data come from patent US9193697B2, “Oxazole derivatives useful as modulators of FAAH” (MERCK SHARP & DOHME CORP., priority 2010, dated 2015).
